US20240415845A1, “Compositions of Iboga Alkaloids and Methods of Treatment” (priority 2022, published 2024)

How the values were obtained:
[1] = test system: special operations veterans with combat and/or blast exposure; test: World Health Organization Disability Assessment Schedule 2.0 (WHODAS 2.0); assay type: in vivo, human; conditions: for WHODAS 2.0 Total, effect size D (Cohen's D) / WHODAS 2.0 Total score: all participants; for WHODAS 2.0 Total score: baseline 30.2 ± 14.7, mean ± SD; for WHODAS 2.0 Self Care subscale: baseline 5.2% ± 9.2%; for WHODAS 2.0 Mobility subscale: baseline 14.7% ± 15.7%; for WHODAS 2.0 Interpersonal subscale: baseline 32.3% ± 20.4; for WHODAS 2.0 Community Participation subscale: baseline 35.6% ± 21.1%; for WHODAS 2.0 Cognition subscale: baseline 36.1% ± 14.6%; for WHODAS 2.0 Life Activities subscale: baseline 41.1% ± 24.8%
Excerpt: The pre-specified primary outcome was change in the World Health Organization Disability Assessment Schedule 2.0 (WHODAS) (Gold L. H. et al., J. Am. Acad. Psychiatry Law 42, 9 (2014)) from baseline to post-treatment, with change from baseline to the one-month follow-up a secondary outcome. Additional pre-specified secondary outcomes included post-treatment changes on the Clinician Administered PTSD Scale (CAPS-5; Weathers, F. W. et al., Psychol. Assess., 30, 383-395 (2018)), Montgomery-Åsberg Depression Rating Scale (MADRS; Montgomery, S. A., Br. J. Psychiatry J. Ment. Sci., 134, 382-389 (1979)) and the Hamilton-Anxiety Rating Scale (HAM-A; Bruss, G. S., et al., Psychiatry Res., 53, 191-202 (1994)). […] An additional dose of magnesium was administered approximately 12 hours later. To assess the significance of post-treatment changes, linear mixed effects (LME) models were used for each outcome measure. False Discovery Rate (FDR; Benjamini, Y. et al., J. R. Stat. Soc. Ser. B Methodol., 57, 289-300 (1995)) was applied to correct for multiple comparisons.
With subjects in the fasting state, an intravenous infusion of 1 gram of magnesium sulfate was administered 1-2 hours prior to treatment. […] Medical staff (MD, RN, or EMT) were onsite at a ratio of at least 1 staff per 2 patients throughout treatment for monitoring and management, but no specific coaching or psychological support was provided during treatment.
Post treatment, each subject was assessed four days after treatment, one month after treatment, and, if willing, one year after treatment. The post-treatment assessments conducted at four days and at one month after treatment included neuropsychological testing, measures of PTSD, depression, anxiety, mystical experiences, functional imaging and EEG. Post-treatment assessments conducted at one year after treatment included PTSD, depression, and anxiety measures.
World Health Organization Disability Assessment Scale 2.0 (WHODAS 2.0) was used as a measure of function. WHODAS was used to assess the impact of health conditions across six life domains (cognition, mobility, self-care, interpersonal, life activities, and community participation) and it is sensitive to change over time (Gold, L. H., J. Am. Acad. Psychiatry Law 42, 9 (2014). Each item in the assessment is rated on a scale ranging from no problems to extreme problems (Üstün, T. B. et al., Measuring health and disability: Manual for WHO disability assessment schedule WHODAS 2.0. (World Health Organization, 2010)). To capture inter-individual variability in disability the WHODAS complex scoring method was used. Raw scores were converted to a metric ranging from 0(no disability) to 100 (full disability), by calculating the ratio of the participant's score relative to the maximum possible score in each domain as well as to the total score (Id.). A score of 20%-39% was considered mild, 40%-59% was moderate, 60%-79% was moderate-severe and 80%-100% was severe. Scores from baseline were compared to scores from one-month post treatment.
A measure of disability for health and disability on life functions is the World Health Organization Disability Assessment Schedule 2.0 (WHODAS). The items are designed to be sensitive to change due to a treatment, and the measure assesses disability over the past 30 days. The items measured are cognition, self-care, mobility, getting along. life activity, and participation in society. The WHODAS measure gives a rating of 1 for no disability, 2 for mild disability and 3 for moderate disability. FIG. 7A is a graph showing results from the World Health Organization Disability Assessment Scale 2.0 (WHODAS 2.0) assessment for each subject at baseline (prior to treatment), about one week after treatment, and one month after treatment. The dashed line represents the means of the individual scores. FIG. 7B is a bar graph of self-reported disability using the WHODAS total scores at baseline and one-month after treatment.

[2] = test system: special operations veterans with combat and/or blast exposure; test: Self-reported alcohol consumption and intoxication; assay type: in vivo, human; conditions: one month following treatment
Protocol: Alcohol consumption in the enrolled subjects was also evaluated. At baseline, 11 of the 30 enrolled subjects reported drinking at least four days per week and 12 of the 30 enrolled subjects reported drinking at least four days per week over the last month. Some of the subjects reported drinking daily. One month following treatment, none (zero) of the enrolled subjects reported drinking more than three times per week. 28 of the 30 enrolled subjects reported drinking less than twice per week over the past month.
Intoxication by alcohol was also evaluated in the enrolled subjects. At baseline, 9 of the 30 enrolled subjects reported being intoxicated more than once over the last 30 days, with some subjects reporting being intoxicated for 25 of the last 30 days. One month following treatment, one participant reported four episodes of intoxication after reporting 23 episodes at baseline.

## CCC1CC2CC3c4[nH]c5ccc(OC)cc5c4CCN(C2)C13 (centres unmarked) [ibogaine, Ibogaine]
[1]; baseline vs one-month
  WHODAS 2.0 Cognition subscale, effect size D: 2.38
  WHODAS 2.0 Community Participation subscale, effect size D: 1.78
  WHODAS 2.0 Interpersonal subscale, effect size D: 1.63
  WHODAS 2.0 Life Activities subscale, effect size D: 1.44
  WHODAS 2.0 Mobility subscale, effect size D: 0.83
  WHODAS 2.0 Self Care subscale, effect size D: 0.51
[1]; baseline vs one-month post
  WHODAS 2.0 Total, effect size D (Cohen's D): 2.20
[1]; baseline vs one-week post
  WHODAS 2.0 Total, effect size D (Cohen's D): 0.74
[1]; baseline vs post-treatment
  WHODAS 2.0 Cognition subscale, effect size D: 0.96
  WHODAS 2.0 Community Participation subscale, effect size D: 0.53
  WHODAS 2.0 Interpersonal subscale, effect size D: 0.60
  WHODAS 2.0 Life Activities subscale, effect size D: 0.48
  WHODAS 2.0 Mobility subscale, effect size D: 0.53
  WHODAS 2.0 Self Care subscale, effect size D: 0.37
[1]; one-month post treatment, baseline about 2.5 (FIG. 7B)
  self-reported disability WHODAS total score (rating 1 no, 2 mild, 3 moderate disability): over 1
[1]; one-month post
  WHODAS 2.0 Total score: 5.1
[1]; one-month
  WHODAS 2.0 Self Care subscale: 1.0% ±
  WHODAS 2.0 Mobility subscale: 1.3% ±
  WHODAS 2.0 Interpersonal subscale: 4.8% ±
  WHODAS 2.0 Community Participation subscale: 5.9% ±
  WHODAS 2.0 Cognition subscale: 5.0% ±
  WHODAS 2.0 Life Activities subscale: 9.1% ±
[1]; one-week post
  WHODAS 2.0 Total score: 19.9
[1]; post-treatment
  WHODAS 2.0 Self Care subscale: 1.9% ±
  WHODAS 2.0 Mobility subscale: 7.2% ±
  WHODAS 2.0 Interpersonal subscale: 21.7% ±
  WHODAS 2.0 Community Participation subscale: 24.7% ±
  WHODAS 2.0 Cognition subscale: 19.2% ±
  WHODAS 2.0 Life Activities subscale: 31.6% ±
[2]; 23 episodes at baseline
  episodes of intoxication reported by one participant: four
[2]; 30 subjects, at baseline 11 of 30 drank at least four days per week
  enrolled subjects reporting drinking more than three times per week: zero
[2]; of the 30 enrolled subjects
  enrolled subjects reporting drinking less than twice per week over the past month: 28
